Laboratory results from ChEMBL document CHEMBL1201862, “PubChem BioAssay data set” (2004).
Activity calls are given as the source filed them.

Key:
[1] = target: T1, Protein RecA (Mycobacterium tuberculosis, UniProt P9WHJ3); test: Fluorescence Cell-Free Homogeneous Dose Retest to Identify Inhibitors of RecA-Intein Splicing Activity. [Related pubchem assays (depositor defined):AID2097, AID2223, AID489010, AID492950]; format: functional
T1 sequence (P9WHJ3 whole entry): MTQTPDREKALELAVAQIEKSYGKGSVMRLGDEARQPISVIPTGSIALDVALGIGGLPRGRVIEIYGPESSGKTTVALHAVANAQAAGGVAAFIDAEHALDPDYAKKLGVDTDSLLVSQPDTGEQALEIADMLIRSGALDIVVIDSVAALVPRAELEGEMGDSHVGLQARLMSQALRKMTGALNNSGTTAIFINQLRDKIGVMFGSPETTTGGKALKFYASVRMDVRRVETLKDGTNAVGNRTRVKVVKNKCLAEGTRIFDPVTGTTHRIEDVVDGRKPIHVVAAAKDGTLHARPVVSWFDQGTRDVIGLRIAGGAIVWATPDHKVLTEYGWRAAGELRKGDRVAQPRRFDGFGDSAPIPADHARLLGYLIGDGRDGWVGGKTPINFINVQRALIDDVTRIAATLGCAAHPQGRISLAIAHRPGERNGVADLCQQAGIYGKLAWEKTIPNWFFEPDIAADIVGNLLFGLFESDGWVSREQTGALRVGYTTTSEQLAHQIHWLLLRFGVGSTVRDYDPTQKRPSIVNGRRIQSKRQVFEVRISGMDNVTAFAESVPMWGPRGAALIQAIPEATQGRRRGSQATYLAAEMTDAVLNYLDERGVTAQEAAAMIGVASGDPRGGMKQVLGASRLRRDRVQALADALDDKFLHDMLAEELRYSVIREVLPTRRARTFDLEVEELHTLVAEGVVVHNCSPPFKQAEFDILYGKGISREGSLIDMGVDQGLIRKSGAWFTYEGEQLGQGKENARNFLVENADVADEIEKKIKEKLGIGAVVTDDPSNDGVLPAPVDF

[2] = target: Dual specificity protein phosphatase 6 (Rattus norvegicus, UniProt Q64346); test: MKP-3 phosphatase inhibitors, primary screen, biochemical, rat enzyme, in vitro (AID 425)
[3] = target: T2, Replicative DNA helicase DnaB (Mycobacterium tuberculosis, UniProt P9WMR3); test: DnaB intein splicing inhibitors, dose response, biochemical, cell-free fluorescence (AID 449749); format: functional
T2 sequence (P9WMR3 whole entry): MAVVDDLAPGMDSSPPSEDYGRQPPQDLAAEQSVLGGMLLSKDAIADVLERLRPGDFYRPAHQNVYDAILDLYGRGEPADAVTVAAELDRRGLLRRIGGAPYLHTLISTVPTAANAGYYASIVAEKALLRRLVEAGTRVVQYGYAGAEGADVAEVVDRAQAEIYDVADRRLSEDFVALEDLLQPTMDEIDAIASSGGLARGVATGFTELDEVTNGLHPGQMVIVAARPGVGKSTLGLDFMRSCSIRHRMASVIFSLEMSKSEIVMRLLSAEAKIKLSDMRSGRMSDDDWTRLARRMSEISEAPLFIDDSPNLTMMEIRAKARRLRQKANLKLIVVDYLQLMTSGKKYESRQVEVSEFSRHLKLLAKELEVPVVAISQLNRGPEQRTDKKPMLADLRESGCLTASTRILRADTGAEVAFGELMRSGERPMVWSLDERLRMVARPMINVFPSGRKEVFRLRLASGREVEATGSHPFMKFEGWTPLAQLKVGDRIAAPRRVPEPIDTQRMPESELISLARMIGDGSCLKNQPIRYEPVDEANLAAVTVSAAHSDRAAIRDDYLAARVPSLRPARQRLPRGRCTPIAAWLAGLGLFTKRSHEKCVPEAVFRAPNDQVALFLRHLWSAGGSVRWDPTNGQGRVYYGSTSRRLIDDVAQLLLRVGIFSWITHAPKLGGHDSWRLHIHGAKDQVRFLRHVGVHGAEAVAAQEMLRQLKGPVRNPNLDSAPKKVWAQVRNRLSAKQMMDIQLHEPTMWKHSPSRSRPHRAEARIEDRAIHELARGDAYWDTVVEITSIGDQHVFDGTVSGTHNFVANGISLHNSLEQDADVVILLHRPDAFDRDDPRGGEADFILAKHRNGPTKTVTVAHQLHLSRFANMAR

[4] = target: T3, Apoptotic protease-activating factor 1 (Homo sapiens, UniProt O14727); format: functional
T3 sequence (O14727 whole entry): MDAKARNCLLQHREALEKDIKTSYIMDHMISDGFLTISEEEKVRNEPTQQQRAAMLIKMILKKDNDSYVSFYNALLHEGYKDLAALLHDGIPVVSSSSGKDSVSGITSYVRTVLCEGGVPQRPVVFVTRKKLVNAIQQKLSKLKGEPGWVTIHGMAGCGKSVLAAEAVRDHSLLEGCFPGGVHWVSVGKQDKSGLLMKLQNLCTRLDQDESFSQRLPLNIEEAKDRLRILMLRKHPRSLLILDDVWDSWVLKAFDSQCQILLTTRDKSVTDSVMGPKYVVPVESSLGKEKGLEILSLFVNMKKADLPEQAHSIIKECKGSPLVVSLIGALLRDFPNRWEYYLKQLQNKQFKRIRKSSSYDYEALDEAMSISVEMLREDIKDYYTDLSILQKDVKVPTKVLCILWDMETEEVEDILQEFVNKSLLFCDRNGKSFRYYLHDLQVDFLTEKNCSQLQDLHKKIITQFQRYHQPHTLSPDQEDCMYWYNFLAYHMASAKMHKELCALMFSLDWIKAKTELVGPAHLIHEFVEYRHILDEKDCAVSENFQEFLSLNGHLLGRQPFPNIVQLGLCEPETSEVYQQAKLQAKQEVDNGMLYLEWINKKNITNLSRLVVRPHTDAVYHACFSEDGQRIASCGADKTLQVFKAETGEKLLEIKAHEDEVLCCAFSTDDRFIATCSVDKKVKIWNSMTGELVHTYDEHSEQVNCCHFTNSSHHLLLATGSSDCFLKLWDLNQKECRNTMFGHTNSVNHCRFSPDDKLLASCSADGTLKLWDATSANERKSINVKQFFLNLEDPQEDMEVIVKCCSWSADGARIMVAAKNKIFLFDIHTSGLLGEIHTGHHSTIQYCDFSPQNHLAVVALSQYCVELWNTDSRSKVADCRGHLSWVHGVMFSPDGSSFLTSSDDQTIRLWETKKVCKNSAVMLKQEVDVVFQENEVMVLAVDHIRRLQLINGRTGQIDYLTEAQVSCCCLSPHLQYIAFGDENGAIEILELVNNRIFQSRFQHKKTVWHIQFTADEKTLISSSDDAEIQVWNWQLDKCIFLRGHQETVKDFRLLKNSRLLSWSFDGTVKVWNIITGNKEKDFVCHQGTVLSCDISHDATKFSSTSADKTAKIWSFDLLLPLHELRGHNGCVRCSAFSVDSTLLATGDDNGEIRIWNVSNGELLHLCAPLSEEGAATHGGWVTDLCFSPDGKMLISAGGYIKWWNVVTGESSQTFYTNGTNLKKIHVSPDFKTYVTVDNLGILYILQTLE

Chain of Dual specificity protein phosphatase 6 (Q64346 whole entry): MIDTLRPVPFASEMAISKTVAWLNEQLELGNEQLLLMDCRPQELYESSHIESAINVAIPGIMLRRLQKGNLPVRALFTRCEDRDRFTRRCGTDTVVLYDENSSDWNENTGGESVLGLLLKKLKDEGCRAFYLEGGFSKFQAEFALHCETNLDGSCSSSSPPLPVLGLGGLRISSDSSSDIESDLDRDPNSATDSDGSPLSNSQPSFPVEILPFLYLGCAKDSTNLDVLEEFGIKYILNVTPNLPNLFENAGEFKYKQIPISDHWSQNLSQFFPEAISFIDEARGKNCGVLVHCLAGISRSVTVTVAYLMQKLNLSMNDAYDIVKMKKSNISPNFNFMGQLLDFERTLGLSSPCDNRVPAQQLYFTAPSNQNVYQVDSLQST

Row | SMILES | EC50 [1] | IC50 [2] | AC50 [3] | IC50 [4]
1 | Oc1nc(Nc2ccccc2)cc2ccccc12 | 1.9 µM (active) | > 100 µM (not active) | > 380 µM (inactive) | 3.31 µM (active)
2 | CCCCCCCCCCOC(=O)C[n+]1c(COc2ccccc2C)n(C)c2ccccc21 | 7.26 µM (active) | – | 3.01 µM (active) | 8.53 µM (active)
